Experimental data taken from paper PMC8936055 (Journal of natural products, 2022).
Where two headings read alike, the source gives them in different places.

How the values were obtained:
[1] = test system: SARS-CoV-2; format: cell-based; conditions: Calu-3 cells; for Suppression of viral infection relative to DMSO control, initial screen: 0.5 μM for 1, 1 μM for the others, 48 h, Figure 3; for Suppression of viral infection, follow-up experiment: Figure 4
[2] = test system: influenza A virus subtype H1N1; conditions: cited from earlier work
[3] = test system: primary human airway cells; conditions: air-liquid interface, 48 h, Figure 5B
[4] = test system: SARS-CoV-2; conditions: cited from earlier work
[5] = test system: HIV-1 strain 96USHIPS7; conditions: read-out: IC50 against HIV-1 strain 96USHIPS7; cited from earlier work
[6] = test system: HIV-1 strain UG/92/029; conditions: read-out: IC50 against HIV-1 strain UG/92/029; cited from earlier work
[7] = test system: Plasmodium falciparum; conditions: human malarial parasite Plasmodium falciparum; cited from earlier work
[8] = cited from earlier work
[9] = test system: SARS-CoV-2; conditions: air-liquid interface culture, test concentration 10 μM, 48 h

Compound: CC(C)=CCC[C@@H](C)[C@H]1CC[C@@]2(C(=O)O)C3=C(CC[C@]12C)[C@@]1(C)CC[C@H](O[C@@H]2OC[C@H](O)[C@H](O[C@@H]4OC[C@H](O)[C@H](O[C@@H]5O[C@H](CO)[C@H](O)[C@H](O)[C@H]5O)[C@H]4O)[C@H]2O[C@@H]2O[C@H](CO)[C@H](O)[C@H](O)[C@H]2O)C(C)(C)C1CC3 (stereo partly shown) [Compound 13, formoside]
- Reduction of SARS-CoV-2 infection in a subsequent experiment ([1]; data not shown): not replicated

Compound: C[C@H]1CC[C@H]2C(C)(C)[C@@H](O)CC[C@]23Oc2c(c(O)cc4c2CNC4=O)C[C@]13C [Compound 16, stachyflin]
- Activity against influenza A virus subtype H1N1 [2]: nanomolar activity

Compound: CC(=O)C[C@]1(O)c2ccccc2-[n+]2ccc3c([nH]c4ccccc43)c21.O=C([O-])C(F)(F)F [Compound 1, homofascaplysin A]
- Suppression of viral infection relative to DMSO control, initial screen [1]: significantly suppressed viral infection
- Suppression of viral infection, follow-up experiment ([1]; 2.8 μM): significant suppression of viral infection
- Effect on adenoviral transduction (toxicity control) [3]: did not affect adenoviral transduction

Compound: plitidepsin [Compound 4]
- Potency against SARS-CoV-2 relative to remdesivir [4]: more than 20 times

Compound: CC1=C2Cc3cc(ccc3O)C(=O)O[C@H](C(C)(C)Br)CC[C@](C)(O)[C@H](Br)CC[C@]2(C)[C@@H](Br)CC1 [Compound 3, bromophycolide A]
- Suppression of viral infection relative to DMSO control, initial screen [1]: significantly suppressed viral infection
- Suppression of viral infection, follow-up experiment ([1]; 10 μM): significant suppression of viral infection
- IC50 [5]: 9.8 µM
- IC50 [6]: 9.1 µM
- Blood stage antimalarial activity [7]: sub-micromolar
- Toxicity in vivo ([8]; malaria mouse model): low toxicity
- Bioavailability in vivo ([8]; mouse, in vivo): reasonable bioavailability
- In vivo half-life ([8]; mouse, in vivo): short in vivo half-life
- Liver metabolism ([8]; mouse, in vivo): rapid liver metabolism
- Effect on SARS-CoV-2 replication in primary human airway cells [9]: ineffective

Compound: C[C@H]1CC[C@H]2C(C)(C)CCC[C@]23Oc2ccc(O)cc2C[C@]13C [Compound 2, (+)-aureol]
- Suppression of viral infection relative to DMSO control, initial screen [1]: significantly suppressed viral infection
- Suppression of viral infection, follow-up experiment ([1]; 10 μM): significant suppression of viral infection
- Effect on SARS-CoV-2 replication in primary human airway cells [9]: ineffective
